What was measured:
[1] = pKa measurement of unformulated amine lipid (fluorescence, method of Jayaraman et al.); type: physicochemical; conditions: 100 μM in 0.1 M phosphate buffer, pH 2.0-12.0
Method: The pKa of each amine lipid was determined according to the method in Jayaraman, et al. (Angewandte Chemie, 2012) with the following adaptations. […] Lipid was diluted to 100 μM in 0.1 M phosphate buffer (Boston Bioproducts) where the pH ranged from 2.0-12.0. Fluorescence intensity was measured using excitation and emission wavelengths of 321 nm and 448 nm.

[2] = RNA encapsulation efficiency of LNPs (Ribogreen fluorescence assay); type: physicochemical; conditions: LNP
Method: A fluorescence-based assay (Ribogreen®, ThermoFisher Scientific) is used to determine total RNA concentration and free RNA. Encapsulation efficiency is calculated as (Total RNA-Free RNA)/Total RNA. LNP samples are diluted appropriately with 1× TE buffer containing 0.2% Triton-X 100 to determine total RNA or 1× TE buffer to determine free RNA. Standard curves are prepared by utilizing the starting RNA solution used to make the compositions and diluted in 1× TE buffer +/− 0.2% Triton-X 100. Diluted RiboGreen® dye (according to the manufacturer's instructions) is then added to each of the standards and samples and allowed to incubate for approximately 10 minutes at room temperature, in the absence of light. A SpectraMax M5 Microplate Reader (Molecular Devices) is used to read the samples with excitation, auto cutoff and emission wavelengths set to 488 nm, 515 nm, and 525 nm respectively. Total RNA and free RNA are determined from the appropriate standard curves.
Encapsulation efficiency is calculated as (Total RNA-Free RNA)/Total RNA. The same procedure may be used for determining the encapsulation efficiency of a DNA-based cargo component. In a fluorescence-based assay, for single-strand DNA Oligreen Dye may be used, and for double-strand DNA, Picogreen Dye. Alternatively, the total RNA concentration can be determined by a reverse-phase ion-pairing (RP-IP) HPLC method. Triton X-100 is used to disrupt the LNPs, releasing the RNA. The RNA is then separated from the lipid components chromatographically by RP-IP HPLC and quantified against a standard curve using UV absorbance at 260 nm.

[3] = Dynamic light scattering of LNPs: Z-average diameter, number average diameter, PDI; type: physicochemical; conditions: LNP
Method: Dynamic Light Scattering (“DLS”) is used to characterize the polydispersity index (“PDI”) and size of the LNPs of the present disclosure. DLS measures the scattering of light that results from subjecting a sample to a light source. PDI, as determined from DLS measurements, represents the distribution of particle size (around the mean particle size) in a population, with a perfectly uniform population having a PDI of zero.
LNP compositions are analyzed for average particle size, polydispersity index (PDI), total RNA content, encapsulation efficiency of RNA, and zeta potential. LNP compositions may be further characterized by lipid analysis, AF4-MALS, NTA, and/or cryo-EM. Average particle size and polydispersity are measured by dynamic light scattering (DLS) using a Malvern Zetasizer DLS instrument or Wyatt NanoStar. LNP samples were diluted with PBS buffer prior to being measured by DLS. Z-average diameter which is an intensity-based measurement of average particle size is reported along with number average diameter and PDI. A Malvern Zetasizer or Wyatt NanoStar instrument is also used to measure the zeta potential of the LNP. Samples are diluted 1:17 (50 μL into 800 μL) in 0.1× PBS, pH 7.4 prior to measurement.

[4] = test system: Transthyretin (TTR); assay: Serum TTR ELISA in mice after LNP dosing; type: in vivo, CD-1 female mice; conditions: guide G282 experiments; for Serum TTR % TSS: mouse serum TTR relative to TSS control; for Serum TTR: mouse serum, ELISA
Method: CD-1 female mice ranging from 6-10 weeks of age were used in each study. Animals were weighed and grouped according to body weight for preparing dosing solutions based on group average weight. LNPs were dosed via the lateral tail vein in a volume of 0.2 mL per animal (approximately 10 mL per kilogram body weight). The animals were periodically observed for adverse effects for at least 24 hours post dose. For studies measuring in vivo editing in liver, CD-1 female mice were dosed at 0.1 mg/kg unless otherwise noted. Animals were euthanized at 6 or 7 days by ex sanguination via cardiac puncture under isoflurane anesthesia. Liver tissue was collected from each animal for DNA extraction and analysis. Blood was collected into serum separator tubes or into tubes containing buffered sodium citrate for plasma as described herein. Cohorts of mice were measured for editing by Next-Generation Sequencing (NGS).
Blood was collected and the serum was isolated as indicated. The total mouse TTR serum levels were determined using a Mouse Prealbumin (Transthyretin) ELISA Kit (Aviva Systems Biology, Cat. OKIA00111). Briefly, sera were serial diluted with kit sample diluent to a final dilution of 10,000-fold for 0.1 mg/kg dose and final dilutions of 10,000-fold and of 2,500-fold for 0.3 mg/kg. This diluted sample was then added to the ELISA plates and the assay was carried out according to the manufacturer's directions.

[5] = sg:mRNA 1:1, N/P about 6, amine lipid/DSPC/cholesterol/PEG-2k-DMG 50/9/38/3, Table 2, Experiments 2-20
[6] = sg:mRNA 1:1, N/P about 6, 50/9/38/3, Table 2, Experiments 2-20
[7] = sg:mRNA 1:1.3, N/P about 6, amine lipid/DSPC/cholesterol/PEG-2k-DMG 50/9/38/3, Table 2, Experiment 1
[8] = sg:mRNA 1:1.3, N/P about 6, 50/9/38/3, Table 2, Experiment 1

| SMILES | pKa [1] | Serum TTR % TSS [4] | Serum TTR [4] | other results |
| --- | --- | --- | --- | --- |
| CCCCC/C=C\C/C=C\CCCCCCCC(=O)OCC(COC(=O)CCC(OCCCCCCCC)OCCCCCCCC)COC(=O)NCC1CCN(C)C1 (stereo not shown) [Compound 43, 3-((4,4-bis(octyloxy)butanoyl)oxy)-2-(((((1-methylpyrrolidin-3-yl)methyl)carbamoyl)oxy)methyl)propyl (9Z,12Z)-octadeca-9,12-dienoate] | 8.6 |  |  |  |
| CCCCC/C=C\C/C=C\CCCCCCCC(=O)OCC(COC(=O)CCC(OCCCCCCCC)OCCCCCCCC)COC(=O)N(C)CCN(CC)CC (stereo not shown) [Compound 33, 3-((4,4-bis(octyloxy)butanoyl)oxy)-2-((((2-(diethylamino)ethyl)(methyl)carbamoyl)oxy)methyl)propyl (9Z,12Z)-octadeca-9,12-dienoate] | 6.03 |  |  |  |
| CCCCC/C=C\C/C=C\CCCCCCCC(=O)OCC(COC(=O)CCC(OCCCCCCCC)OCCCCCCCC)COC(=O)NCCN(C)CC (stereo not shown) [Compound 35, 3-((4,4-bis(octyloxy)butanoyl)oxy)-2-((((2-(ethyl(methyl)amino)ethyl)carbamoyl)oxy)methyl)propyl (9Z,12Z)-octadeca-9,12-dienoate] | 7.39 |  |  |  |
| CCCCC/C=C\C/C=C\CCCCCCCC(=O)OCC(COC(=O)CCC(OCCCCCCCC)OCCCCCCCC)COC(=O)OCC1CN(CC)C1 (stereo not shown) [Compound 50, 3-((4,4-bis(octyloxy)butanoyl)oxy)-2-(((((1-ethylazetidin-3-yl)methoxy)carbonyl)oxy)methyl)propyl (9Z,12Z)-octadeca-9,12-dienoate] | 5.2 |  |  |  |
| CCCCC/C=C\C/C=C\CCCCCCCC(=O)OCC(COC(=O)CCC(OCCCCCCCC)OCCCCCCCC)COC(=O)NCCCN1CCC(O)CC1 (stereo not shown) [Compound 46, 3-((4,4-bis(octyloxy)butanoyl)oxy)-2-((((3-(4-hydroxypiperidin-1-yl)propyl)carbamoyl)oxy)methyl)propyl (9Z,12Z)-octadeca-9,12-dienoate] | 8.9 |  |  |  |
| CCCCC/C=C\C/C=C\CCCCCCCC(=O)OCC(COC(=O)CCC(OCCCCCCCC)OCCCCCCCC)COC(=O)NCCN1CCC(O)CC1 (stereo not shown) [Compound 49, 3-((4,4-bis(octyloxy)butanoyl)oxy)-2-((((2-(4-hydroxypiperidin-1-yl)ethyl)carbamoyl)oxy)methyl)propyl (9Z,12Z)-octadeca-9,12-dienoate] | 8.4 |  |  |  |
| CCCCC/C=C\C/C=C\CCCCCCCC(=O)OCC(COC(=O)CCC(OCCCCCCCC)OCCCCCCCC)COC(=O)OCC1CCCN1C (stereo not shown) [Compound 14, 3-((4,4-bis(octyloxy)butanoyl)oxy)-2-(((((1-methylpyrrolidin-2-yl)methoxy)carbonyl)oxy)methyl)propyl (9Z,12Z)-octadeca-9,12-dienoate] |  | 88% | 908 µg/mL | Encapsulation (%) [2, 5]: 93%; Number mean (nm) [3, 6]: 45.18 nm; PDI [3, 6]: 0.091; Z-avg (nm) [3, 6]: 64.69 nm |
| CCCCC/C=C\C/C=C\CCCCCCCC(=O)OCC(COC(=O)CCC(OCCCCCCCC)OCCCCCCCC)COC(=O)NCCN(C)C (stereo not shown) [Compound 34, 3-((4,4-bis(octyloxy)butanoyl)oxy)-2-((((2-(dimethylamino)ethyl)carbamoyl)oxy)methyl)propyl (9Z,12Z)-octadeca-9,12-dienoate] | 7.84 |  |  |  |
| CCCCCCCCCCOC(=O)CCCCCCCC(=O)OCC(COC(=O)CCCCCC(=O)OC(CCCCCCCC)CCCCCCCC)COC(=O)NCCN(CC)CC (stereo not shown) [Compound 81, 1-decyl 9-(3-(((2-(diethylamino)ethyl)carbamoyl)oxy)-2-(((7-(heptadecan-9-yloxy)-7-oxoheptanoyl)oxy)methyl)propyl) nonanedioate] | 6.65 |  |  |  |
| CCCCC/C=C\C/C=C\CCCCCCCC(=O)OCC(COC(=O)CCC(OCCCCCCCC)OCCCCCCCC)COC(=O)OCC1CCCN(CC)C1 (stereo not shown) [Compound 5, 3-((4,4-bis(octyloxy)butanoyl)oxy)-2-(((((1-ethylpiperidin-3-yl)methoxy)carbonyl)oxy)methyl)propyl (9Z,12Z)-octadeca-9,12-dienoate] |  | 60% | 737 µg/mL | Encapsulation (%) [2, 7]: 98%; Number mean (nm) [3, 8]: 50.89 nm; PDI [3, 8]: 0.059; Z-avg (nm) [3, 8]: 66.28 nm |
| CCCCC/C=C\C/C=C\CCCCCCCC(=O)OCC(COC(=O)CCC(OCCCCCCCC)OCCCCCCCC)COC(=O)OCCCCN1CCCC1 (stereo not shown) [Compound 13, 3-((4,4-bis(octyloxy)butanoyl)oxy)-2-((((4-(pyrrolidin-1-yl)butoxy)carbonyl)oxy)methyl)propyl (9Z,12Z)-octadeca-9,12-dienoate] |  | 93% | 837 µg/mL | Encapsulation (%) [2, 5]: 97%; Number mean (nm) [3, 6]: 74.6 nm; PDI [3, 6]: 0.013; Z-avg (nm) [3, 6]: 91.12 nm |
| CCCCC/C=C\C/C=C\CCCCCCCC(=O)OCC(COC(=O)CCC(OCCCCCCCC)OCCCCCCCC)COC(=O)OCCCN1CCCC1 (stereo not shown) [Compound 3, 3-((4,4-bis(octyloxy)butanoyl)oxy)-2-((((3-(pyrrolidin-1-yl)propoxy)carbonyl)oxy)methyl)propyl (9Z,12Z)-octadeca-9,12-dienoate] |  | 105% | 1297 µg/mL | Encapsulation (%) [2, 7]: 91%; Number mean (nm) [3, 8]: 61.67 nm; PDI [3, 8]: 0.079; Z-avg (nm) [3, 8]: 86.16 nm |
| CCCCC/C=C\C/C=C\CCCCCCCC(=O)OCC(COC(=O)CCC(OCCCCCCCC)OCCCCCCCC)COC(=O)C1(C)CCN(C)C1 (stereo not shown) [Compound 30, 3-((4,4-bis(octyloxy)butanoyl)oxy)-2-((((9Z,12Z)-octadeca-9,12-dienoyl)oxy)methyl)propyl 1,3-dimethylpyrrolidine-3-carboxylate] | 6.06 |  |  |  |
| CCCCC/C=C\C/C=C\CCCCCCCC(=O)OCC(COC(=O)CCC(OCCCCCCCC)OCCCCCCCC)COC(=O)OCCN1CCCC1 (stereo not shown) [Compound 10, 3-((4,4-bis(octyloxy)butanoyl)oxy)-2-((((2-(pyrrolidin-1-yl)ethoxy)carbonyl)oxy)methyl)propyl (9Z,12Z)-octadeca-9,12-dienoate] |  | 96% | 871 µg/mL | Encapsulation (%) [2, 5]: 90%; Number mean (nm) [3, 6]: 39.12 nm; PDI [3, 6]: 0.086; Z-avg (nm) [3, 6]: 57.21 nm |
| CCCCCCCCCCOC(=O)CCCCCCCC(=O)OCC(COC(=O)CCC(OCCCCCCC)OCCCCCCC)COC(=O)OCCCN(CC)CC (stereo not shown) [Compound 78, 1-(3-((4,4-bis(heptyloxy)butanoyl)oxy)-2-((((3-(diethylamino)propoxy)carbonyl)oxy)methyl)propyl) 9-decyl nonanedioate] | 6.11 |  |  |  |
